In patent US11786534B2 (TAIHO PHARMACEUTICAL CO., LTD., priority 2019, dated 2023):
pIC50: −log10 of the molar value.

What was measured:
Assay type in all cases: biochemical
[1] = target: T1, human EGFR (d746-750/C797S) (Homo sapiens, UniProt P00533, C797S/DEL746-750); test: Inhibitory activity against EGFR (d746-750/C797S) kinase
T1 construct: purchased SignalChem
Procedure: 3) Measurement of inhibitory activity against EGFR (d746-750/C797S) kinase
The compounds of the present invention were measured for their inhibitory activity against EGFR (d746-750/C797S) kinase activity.
The materials, measurement procedures and data analysis method used in this test are substantially the same as those shown in the section “Measurement of inhibitory activity aiainst EGFR (d746-750/T790M/C797S) kinase.” However, among the materials, the kinase protein used was a purified recombinant human EGFR (d746-750/C797S) protein purchased from SignalChem, while the kinase reaction buffer used was 13.5 mM Tris (pH 7.5) containing 2 mM dithiothreitol and 0.009% Tween-20. In the measurement procedures, the final concentration of ATP was set to 14 μM, the final concentration of maganesium chloride was set to 20 mM, the final concentration of manganese chloride was set to 12.5 mM, the incubation time for kinase reaction was set to 60 minutes, and the final concentration of EDTA used to stop the kinase reaction was set to 40 mM. Finally, data analysis was conducted to determine to IC50 value (nM) of each compound against EGFR (d746-750/C797S).
In accordance with the same procedures as shown in 3) in Test Example 1, the compounds of the present invention were measured for their inhibitory activity against EGFR (d746-750/C797S) kinase activity.

human EGFR (L858R/C797S) = target: T2, human EGFR (L858R/C797S) (Homo sapiens, UniProt P00533, C797S/L858R); test: Inhibitory activity against EGFR (L858R/C797S) kinase; settings: Test Example 1, Table 5; ATP 4 μM, 90 minutes
T2 construct: purchased SignalChem
Procedure: 4) Measurement of inhibitory activity against EGFR (L858R/C797S) kinase
The compounds of the present invention were measured for their inhibitory activity aeainst EGFR (L858R/C797S) kinase activity.
The materials, measurement procedures and data analysis method used in this test are stibstantially the same as those shown in the section “Measurement of inhibitory activity against EGFR (d746-750/C797S) kinase.” However, among the materials, the kinase protein used was a purified recombinant human EGFR (C797S/L858R) protein purchased from SignalChem. In the measurement procedures, the final concentration of ATP was set to 4 μM, and the incubation time for kinase reaction was set to 90 minutes. Finally, data analysis was conducted determine the IC50 value (nM) of each compound against EGFR (L858R/C797S).
In accordance with the same procedures as shown in 4) in Test Example 1, the compounds of the present invention were measured for their inhibitor activity against. EGFR (L858R/C797S) kinase activity.

[2] = target: T3, human EGFR (d746-750/T790M/C797S) (Homo sapiens, UniProt P00533, C797S/DEL746-750/T790M); test: Inhibitory activity against EGFR (d746-750/T790M/C797S) kinase
T3 construct: made in house; host or cells: Sf9 insect cells, baculovirus
Procedure: 1) Measurement of inhibitory activity against EGFR (d746-750/T790M/C797S) kinase
The compounds of the above examples and comparative examples were measured for their inhibitory activity against EGFR (d746-750/T790M/C797S) kinase activity. Among the materials required for measurement of this inhibitory activity, the kinase protein (SEQ ID NO: 1) used was prepared as follows: the cytoplasmic domain of human EGFR (d746-750/T790M/C797S) fused at the ammo terminal end with a glutathione-S-transferase (GST) tag was expressed M insect cells (Sf9) by the baculovirus expression system and then purified an a glutathione sepharose column. For use as a substrate peptide, a peptide biotinylated at the N-terminal end (biotin -EEPLYWSFPAKKK) was synthesized by reference to Perkin Elmer LabChip® series reagent FL-Peptide 22.
Procedures for measurement of the inhibitory activity are as follows. First, the compounds of the present invention were each dissolved in dimethyl sulfoxide (DMSO), and their serial dilutions were then prepared with DMSO. Secondly, each compound serial dilution (final concentration of DMSO during kinase reaction: 2.5%) or DMSO (final concentration: 2.5%) was mixed with a solution containing the substrate peptide (final concentration: 250 nM), magnesium chloride (final concentration: 10 mM), manganese chloride (final concentration: 10 mM) and ATP (final concentration: 6 μM) in a kinase reaction buffer (Carna Biosciences Inc., Japan), and the EGFR (d746-750/T790M/C797S) protein was further added thereto, followed by incubation at 25° C. for 120 minutes to cause kinase reaction. To the reaction solution, EDTA was added to give a final concentration of 24 mM to thereby stop the reaction, followed by addition of a phospholylated tyrosine detection solution containing europium-labeled anti-phosphorylated tyrosine antibody PT66 (Perkin Elmer) and SureLight APC-SA (Perkin Elmer). The reaction solution was allowed to stand at room temperature for 2 hours or longer. As a background, DMSO was used instead of each compound solution in .DMSO, and EDIA was added prior to the addition of the EGFR EGFR (d746-750/T790M/C797S) protein, followed by incubation at 25° C. for 120 minutes. The same detection solution was also added to this reaction solution, which was then allowed to stand for 2 hours or longer. Finally, all the test samples were measured with a PHERAstar FS reader (BMG LABTECH) for their fluorescence intensity at two wavelengths of 620 nm and 665 nm upon irradiation with an excitation light of 337 nm wavelength, and the ratio of fluorescence intensities at these two wavelengths was obtained as data for each compound.
Moreover, as control compounds, the above Comparative Example A (Example 3 in WO2013/118817) and Comparative Example B (Example 35 in WO2013/118817) known to have EGFR inhibitory activity were used.
In accordance with the same procedures as shown in 1) in Test Example 1, the compounds of the above examples were measured for their inhibitory activity against EGFR (d746-750/T790M/C797S) kinase activity.

human EGFR (WT) = target: T4, human EGFR (WT) (Homo sapiens, UniProt P00533); test: Inhibitory activity against EGFR (WT) kinase
T4 construct: purchased Carna Biosciences Inc., Japan
Procedure: The compounds of the present invention were measured for their inhibitory activity nainst EGFR (WT) kinase activity.
The materials, measurement procedures and data analysis method used in this test. are substantially the same as those shown in the section “Measurement of inhibitory activity against EGFR (d746-750/T790M/C797S) kinase.” However, among the materials, the kinase protein used was a purified recombinant human EGFR (WT) purchased from Carna Biosciences Inc., Japan. In the measurement procedures, the final concentration of ATP was set to 1.5 μM. Finally, data analysis was conducted to determine the IC50 value (nM) of each compound against EGFR (WT).
In accordance with the same procedures as shown in 5) in Test Example 1, the compounds of the present invention were measured for their inhibitory activity against. EGFR (WT) kinase activity.

[3] = target: T5, human EGFR (L858R/T790M/C797S) (Homo sapiens, UniProt P00533, C797S/L858R/T790M); test: Inhibitory activity against EGFR (L858R/T790M/C797S) kinase; settings: Test Example 3, Table 9; same procedures as 2) in Test Example 1
T5 construct: made in house; host or cells: Sf9 insect cells, baculovirus
Procedure: 2) Measurement of inhibitory activity against EGFR (L858R/T790M/C797S) kinase
The compounds of the presein invention were measured for their inhibitory activity against EGFR (L858R/T790M/C797S) kinase activity.
The materials, measurement procedures and data analysis method used in this test are substantially the same as those shown in the section “Measurement of inhibitory activity against EGFR (d746-750/T790M/C797S) kinase.” However, among the materials, the kinase protein (SEQ ID NO: 2) used was prepared as follows: the cytoplasmic domain of human EGFR (L858R/T790M/C797S) fused at the amino terminal end with a GST tag was expressed in insect cells (Sf9) by the baculovirus expression system and then purified on a glutathione sepharose column. In the measurement procedures, the final concentration of ATP was set to 0.5 μM. Finally, data analysis was conducted to determine the IC50 value (nM) of each compound against EGFR (L858R/T790M/C797S).
In accordance with the same procedures as shown in 2) in Test Example 1, the compounds of the present invention were measured for their inhibitory activity against EGFR (L858R/T790M/C797S) kinase activity.

[4] = Test Example 1, Table 4, ATP 14 μM, 60 minutes
[5] = Test Example 1, Table 2, ATP 6 μM, 25° C., 120 minutes
[6] = Test Example 1, Table 6, ATP 1.5 μM

T4 sequence (P00533 25-1210): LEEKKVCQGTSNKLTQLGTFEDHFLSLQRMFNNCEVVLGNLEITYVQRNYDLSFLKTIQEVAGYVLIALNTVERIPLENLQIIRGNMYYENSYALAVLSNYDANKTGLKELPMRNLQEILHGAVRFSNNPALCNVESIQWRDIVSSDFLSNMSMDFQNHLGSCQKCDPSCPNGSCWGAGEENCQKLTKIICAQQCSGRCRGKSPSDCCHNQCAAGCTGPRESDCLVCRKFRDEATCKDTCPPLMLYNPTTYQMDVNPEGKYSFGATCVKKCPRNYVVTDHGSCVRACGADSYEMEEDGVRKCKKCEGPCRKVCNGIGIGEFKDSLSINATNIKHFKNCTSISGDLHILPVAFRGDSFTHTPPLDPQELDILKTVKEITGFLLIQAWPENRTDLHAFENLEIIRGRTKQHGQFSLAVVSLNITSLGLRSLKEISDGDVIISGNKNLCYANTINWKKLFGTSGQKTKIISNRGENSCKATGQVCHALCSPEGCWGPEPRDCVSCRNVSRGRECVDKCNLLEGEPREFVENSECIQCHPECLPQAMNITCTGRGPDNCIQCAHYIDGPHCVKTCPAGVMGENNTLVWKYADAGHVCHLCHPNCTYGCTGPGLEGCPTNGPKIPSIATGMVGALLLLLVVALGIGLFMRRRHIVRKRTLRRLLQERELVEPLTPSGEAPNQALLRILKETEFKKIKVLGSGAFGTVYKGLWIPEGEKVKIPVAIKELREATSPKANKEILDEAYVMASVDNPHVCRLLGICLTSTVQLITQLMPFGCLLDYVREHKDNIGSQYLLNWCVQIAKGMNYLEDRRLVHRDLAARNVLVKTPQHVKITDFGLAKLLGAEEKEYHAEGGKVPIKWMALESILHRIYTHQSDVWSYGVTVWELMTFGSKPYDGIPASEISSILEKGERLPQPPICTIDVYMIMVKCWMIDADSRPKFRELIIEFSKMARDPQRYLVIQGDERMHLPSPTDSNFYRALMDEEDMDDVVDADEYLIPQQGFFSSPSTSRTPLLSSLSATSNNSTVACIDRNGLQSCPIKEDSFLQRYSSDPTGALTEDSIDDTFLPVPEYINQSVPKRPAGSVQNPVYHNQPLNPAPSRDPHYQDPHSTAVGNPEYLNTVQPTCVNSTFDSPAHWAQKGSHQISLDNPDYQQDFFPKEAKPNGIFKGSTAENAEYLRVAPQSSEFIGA
T3 sequence (P00533 with tags, fused parts or gaps DEL746-750/T790M/C797S): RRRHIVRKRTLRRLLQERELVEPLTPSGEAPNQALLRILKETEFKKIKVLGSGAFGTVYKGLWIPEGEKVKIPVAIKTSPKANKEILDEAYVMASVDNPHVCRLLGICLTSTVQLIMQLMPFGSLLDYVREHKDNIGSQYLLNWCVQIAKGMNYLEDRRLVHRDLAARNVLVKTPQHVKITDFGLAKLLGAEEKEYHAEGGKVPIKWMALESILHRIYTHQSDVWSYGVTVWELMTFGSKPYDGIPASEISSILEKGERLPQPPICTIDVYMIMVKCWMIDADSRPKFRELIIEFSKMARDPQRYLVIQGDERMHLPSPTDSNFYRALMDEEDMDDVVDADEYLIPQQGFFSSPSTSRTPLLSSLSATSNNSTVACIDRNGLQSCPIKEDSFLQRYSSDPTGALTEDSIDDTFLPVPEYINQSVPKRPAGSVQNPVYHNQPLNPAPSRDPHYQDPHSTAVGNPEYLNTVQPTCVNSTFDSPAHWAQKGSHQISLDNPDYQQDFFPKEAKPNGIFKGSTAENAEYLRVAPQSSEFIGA
T2 sequence (P00533 25-1210 C797S/L858R): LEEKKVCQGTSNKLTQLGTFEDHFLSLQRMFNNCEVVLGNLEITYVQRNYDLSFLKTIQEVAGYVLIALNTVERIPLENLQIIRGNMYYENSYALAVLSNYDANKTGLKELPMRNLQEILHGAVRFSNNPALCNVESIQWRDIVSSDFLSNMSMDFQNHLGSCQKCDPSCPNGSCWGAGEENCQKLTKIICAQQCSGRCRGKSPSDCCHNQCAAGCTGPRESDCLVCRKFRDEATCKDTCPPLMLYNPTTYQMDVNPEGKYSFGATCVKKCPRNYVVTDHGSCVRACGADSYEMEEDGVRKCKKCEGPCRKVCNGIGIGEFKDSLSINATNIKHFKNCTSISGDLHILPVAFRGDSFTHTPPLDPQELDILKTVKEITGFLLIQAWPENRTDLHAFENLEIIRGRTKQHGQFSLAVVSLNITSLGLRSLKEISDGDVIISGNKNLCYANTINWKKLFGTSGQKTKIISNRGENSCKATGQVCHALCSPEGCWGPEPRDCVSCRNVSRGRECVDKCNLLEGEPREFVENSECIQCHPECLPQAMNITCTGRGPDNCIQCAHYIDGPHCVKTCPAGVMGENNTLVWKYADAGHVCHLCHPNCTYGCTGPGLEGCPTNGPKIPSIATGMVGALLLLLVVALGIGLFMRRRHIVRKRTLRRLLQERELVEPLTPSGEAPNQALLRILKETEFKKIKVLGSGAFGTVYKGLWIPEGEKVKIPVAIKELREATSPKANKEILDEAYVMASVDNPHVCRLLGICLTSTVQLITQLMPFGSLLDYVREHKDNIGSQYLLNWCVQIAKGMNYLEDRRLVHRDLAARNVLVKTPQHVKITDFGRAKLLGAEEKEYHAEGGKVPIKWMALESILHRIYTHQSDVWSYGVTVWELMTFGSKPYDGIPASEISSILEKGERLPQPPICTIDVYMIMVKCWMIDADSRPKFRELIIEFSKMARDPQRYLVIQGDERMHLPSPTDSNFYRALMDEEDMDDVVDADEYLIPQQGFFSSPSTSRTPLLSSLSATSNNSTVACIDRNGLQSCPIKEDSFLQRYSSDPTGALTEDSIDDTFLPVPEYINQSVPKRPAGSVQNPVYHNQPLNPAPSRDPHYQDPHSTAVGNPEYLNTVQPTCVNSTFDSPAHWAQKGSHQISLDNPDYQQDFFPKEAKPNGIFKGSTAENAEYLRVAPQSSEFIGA
T1 sequence (P00533 with tags, fused parts or gaps DEL746-750/C797S): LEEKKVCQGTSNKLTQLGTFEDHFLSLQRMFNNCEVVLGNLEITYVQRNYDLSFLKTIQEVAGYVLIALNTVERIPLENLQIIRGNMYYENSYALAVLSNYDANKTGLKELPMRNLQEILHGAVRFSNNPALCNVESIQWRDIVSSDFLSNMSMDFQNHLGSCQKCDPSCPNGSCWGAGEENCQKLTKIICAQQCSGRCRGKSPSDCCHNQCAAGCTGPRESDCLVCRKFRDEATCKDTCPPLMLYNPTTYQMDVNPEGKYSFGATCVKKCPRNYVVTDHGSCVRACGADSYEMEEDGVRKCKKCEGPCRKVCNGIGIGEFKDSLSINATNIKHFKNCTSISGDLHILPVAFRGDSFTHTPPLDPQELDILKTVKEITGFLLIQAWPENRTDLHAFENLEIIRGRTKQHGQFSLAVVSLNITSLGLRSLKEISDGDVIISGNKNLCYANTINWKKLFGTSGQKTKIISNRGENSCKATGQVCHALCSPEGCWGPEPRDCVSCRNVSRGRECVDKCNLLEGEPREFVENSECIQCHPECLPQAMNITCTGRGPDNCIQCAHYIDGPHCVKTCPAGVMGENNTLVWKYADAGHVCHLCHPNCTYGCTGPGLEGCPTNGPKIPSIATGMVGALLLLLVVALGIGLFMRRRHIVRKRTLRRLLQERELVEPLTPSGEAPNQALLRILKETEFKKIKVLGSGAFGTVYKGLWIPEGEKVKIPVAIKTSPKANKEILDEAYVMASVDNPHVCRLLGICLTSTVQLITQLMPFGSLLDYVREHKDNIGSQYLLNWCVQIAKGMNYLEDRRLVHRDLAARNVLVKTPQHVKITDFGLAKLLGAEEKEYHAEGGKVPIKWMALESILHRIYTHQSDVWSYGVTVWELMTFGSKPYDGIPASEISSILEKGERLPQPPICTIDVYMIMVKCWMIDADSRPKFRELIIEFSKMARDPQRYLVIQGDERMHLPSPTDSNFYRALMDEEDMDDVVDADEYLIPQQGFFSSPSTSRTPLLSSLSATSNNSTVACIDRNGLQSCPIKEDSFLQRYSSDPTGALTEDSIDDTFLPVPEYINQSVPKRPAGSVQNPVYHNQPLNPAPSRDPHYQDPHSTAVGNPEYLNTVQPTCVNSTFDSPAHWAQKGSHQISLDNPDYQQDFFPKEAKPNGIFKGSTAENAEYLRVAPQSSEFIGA
T5 sequence (P00533 with tags, fused parts or gaps T790M/C797S/L858R): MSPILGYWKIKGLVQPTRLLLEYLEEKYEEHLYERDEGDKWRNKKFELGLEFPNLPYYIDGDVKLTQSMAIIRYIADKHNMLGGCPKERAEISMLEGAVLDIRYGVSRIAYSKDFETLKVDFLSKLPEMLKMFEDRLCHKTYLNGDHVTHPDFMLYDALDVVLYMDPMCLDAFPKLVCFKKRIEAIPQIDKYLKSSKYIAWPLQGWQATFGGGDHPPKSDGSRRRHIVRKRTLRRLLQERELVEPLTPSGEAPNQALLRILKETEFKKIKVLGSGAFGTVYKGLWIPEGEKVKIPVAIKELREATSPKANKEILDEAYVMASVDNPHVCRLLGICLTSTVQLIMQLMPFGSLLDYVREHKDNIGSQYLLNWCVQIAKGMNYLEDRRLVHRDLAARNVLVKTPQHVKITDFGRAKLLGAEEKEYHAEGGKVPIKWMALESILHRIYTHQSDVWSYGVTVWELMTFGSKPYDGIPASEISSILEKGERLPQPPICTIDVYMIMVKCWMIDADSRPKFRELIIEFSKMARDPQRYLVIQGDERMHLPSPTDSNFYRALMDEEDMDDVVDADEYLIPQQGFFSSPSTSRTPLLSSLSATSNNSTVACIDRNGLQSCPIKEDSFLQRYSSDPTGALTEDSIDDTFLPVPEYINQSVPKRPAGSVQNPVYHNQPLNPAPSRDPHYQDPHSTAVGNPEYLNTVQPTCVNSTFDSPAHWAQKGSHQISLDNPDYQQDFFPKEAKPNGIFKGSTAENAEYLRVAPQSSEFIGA

| Structure (SMILES) | pIC50 [1, 4] | pIC50 (human EGFR (L858R/C797S)) | pIC50 [2, 5] | pIC50 (human EGFR (WT); [6]) | pIC50 [3] | pIC50 ([1]; Test Example 3, Table 10; same procedures as 3) in Test Example 1) | pIC50 ([2]; Test Example 3, Table 8; same procedures as 1) in Test Example 1) | pIC50 (human EGFR (WT); Test Example 3, Table 12; same procedures as 5) in Test Example 1) |
| --- | --- | --- | --- | --- | --- | --- | --- | --- |
| C#Cc1c(-c2cnc3ccccc3c2)c2c(N)ncnc2n1C12CCC(N3CCN(C)C(=O)C3)(CC1)C2 [Example 5, 4-(4-(4-Amino-6-ethynyl-5-(quinolin-3-yl)-7H-pyrrolo[2,3-d]pyrimidin-7-yl)bicyclo-[2.2.1]heptan-1-yl)-1-methylpiperazin-2-one] | 8.92 | 8.55 | 9.49 | 8.40 |  |  |  |  |
| CC#Cc1c(-c2cnc3ccccc3c2)c2c(N)ncnc2n1C12CCC(NC(=O)c3ccnn3C)(CC1)C2 [Example 33, N-(4-(4-Amino-6-(propyn-1-yl)-5-(quinolin-3-yl)-7H-pyrrolo[2,3-d]pyrimidin-7-yl) -bicyclo[2.2.1]heptan-1-yl)-1-methyl-1H-pyrazole-5-carboxamide] | 8.72 | 8.64 | > 9.52 | 8.72 |  |  |  |  |
| C#Cc1c(-c2cnc3ccccc3c2)c2c(N)ncnc2n1C12CCC(NCc3cccnc3)(CC1)CC2 [Example 8, 6-Ethynyl-7-(4-((pyridin-3-ylmethyl)amino)bicyclo[2.2.2]octan-1-yl)-5-(quinolin-3-yl) -7H-pyrrolo[2,3-d]pyrimidine-4-amine] | 9.14 | 8.85 | > 9.52 | 8.49 |  |  |  |  |
| C#Cc1c(-c2cnc3ccccc3c2)c2c(N)ncnc2n1C12CCC(CN(C)C)(CC1)C2 [Example 40, 7-(4-((Dimethylamino)methyl)bicyclo[2.2.1]heptan-1-yl)-6-ethynyl-5-(quinolin-3-yl) -7H-pyrrolo[2,3-d]pyrimidine-4-amine] | 8.59 | 8.40 | > 9.52 | 8.30 |  |  |  |  |
| C#Cc1c(-c2cnc3ccccc3c2)c2c(N)ncnc2n1C12CCC(NC(=O)c3cnc(N(C)C)cn3)(CC1)C2 [Example 32, N-(4-(4-Amino-6-ethynyl-5-(quinolin-3-yl)-7H-pyrrolo[2,3-d]pyrimidin-7-yl)bicyclo-[2.2.1]heptan-1-yl)-5-(dimethylamino)pyrazine-2-carboxamide] | 9.23 | 9.11 | > 9.52 | 9.00 |  |  |  |  |
| C#Cc1c(-c2cnc3ccccc3c2)c2c(N)ncnc2n1C12CCC(NC(=O)n3cccn3)(CC1)C2 [Example 21, N-(4-(4-Amino-6-ethynyl-5-(quinolin-3-yl)-7H-pyrrolo[2,3-d]pyrimidin-7-yl)bicyclo-[2.2.1]heptan-1-yl)-1H-pyrazole-1-carboxamide] | 9.11 | 9.01 | > 9.52 | 8.77 |  |  |  |  |
| C#Cc1c(-c2cnc3ccccc3c2)c2c(N)ncnc2n1C12CCC(O)(CC1)CC2 [Example 7, 4-(4-Amino-6-ethynyl-5-(quinoiln-3-yl)-7H-pyrrolo[2,3-d]pyrimidin-7-yl)bicyclo-[2.2.2]octan-1-ol] | 8.64 | 8.54 | 9.10 | 8.60 |  |  |  |  |

Results, then the compound that gave them:

| pIC50 [1, 4] | pIC50 (human EGFR (L858R/C797S)) | pIC50 [2, 5] | pIC50 (human EGFR (WT); [6]) | pIC50 [3] | pIC50 ([1]; Test Example 3, Table 10; same procedures as 3) in Test Example 1) | pIC50 ([2]; Test Example 3, Table 8; same procedures as 1) in Test Example 1) | pIC50 (human EGFR (WT); Test Example 3, Table 12; same procedures as 5) in Test Example 1) | Structure (SMILES) |
| --- | --- | --- | --- | --- | --- | --- | --- | --- |
| 9.07 | 8.92 | > 9.52 | 8.92 |  |  |  |  | C#Cc1c(-c2cnc3ccccc3c2)c2c(N)ncnc2n1C12CCC(NC(=O)CN(C)C)(CC1)CC2 [Example 55] |
| 8.82 | 8.55 | > 9.52 | 8.20 |  |  |  |  | C#Cc1c(-c2cnc3ccccc3c2)c2c(N)ncnc2n1C12CCC(CNCCF)(CC1)C2 [Example 54, 6-Ethynyl-7-(4-(((2-fluoroethyl)amino)methyl)bicyclo[2.2.1]heptan-1-yl)-5-(quinolin-3-yl)-7H-pyrrolo[2,3-d]pyrimidine-4-amine] |
|  |  |  |  | > 9.52 | 9.47 | > 9.52 | 8.80 | C#Cc1c(-c2cnc3ccccc3c2)c2c(N)ncnc2n1C12CCC(NC(=O)[C@@H]3CNCCO3)(CC1)C2 [Example 62, (S)-N-(4-(4-Amino-6-ethynyl-5-(quinolin-3-yl)-7H-pyrrolo[2,3-d]pyrimidin-7-yl) -bicyclo[2.2.1]heptan-1-yl)morpholine-2-carboxamide] |
| 9.08 | 9.05 | > 9.52 | 9.03 |  |  |  |  | C#Cc1c(-c2cnc3ccccc3c2)c2c(N)ncnc2n1C12CCC(NC(=S)N3CC4(CN(C)C4)C3)(CC1)CC2 [Example 56] |
| 8.60 | 8.36 | > 9.52 | 8.23 |  |  |  |  | C#Cc1c(-c2cnc3ccccc3c2)c2c(N)ncnc2n1C12CCC(N(C)C(=O)c3cnc(C)cn3)(CC1)C2 [Example 57] |
